Laboratory results as given in patent US20130071521A1, “REBAUDIOSIDE D SWEETENERS AND FOOD PRODUCTS SWEETENED WITH REBAUDIOSIDE D” (PEPSICO, INC., priority 2007, published 2013).

How the values were obtained:
[1] = Sweetness intensity and quality of taste of steviol glycosides reported by Kinghorn (2002); settings: from the Kinghorn values
Description: In the book “Stevia, The genus Stevia”, edited by A. Douglas Kinghorn (2002), the structural differences, sweetness intensity and quality of taste between the steviol glycosides is reported on page 138. The relative quality of taste, as compared to stevioside, (i.e., stevioside is rated 0) of rebaudioside D was rated higher (+3) than rebaudioside A was rated (+2). Particular taste attributes that contributed to the quality of taste, however, were not individually rated. The sweetness of rebaudioside A was reported to have a value of 242, whereas the sweetness of rebaudioside D was reported to have a value of 221.

[2] = Kinghorn (2002) page 138, cited from earlier work
[3] = tested on: sensory panel of twelve testers; assay: Sensory panel evaluation of initial sweetness characteristics of sweeteners in water (Example 1); assay type: in vivo; settings: for behavior as compared to sucrose, all concentrations plotted: FIG. 12; for initial sweetness perception: FIG. 2/FIG. 4; for initial bitterness perception: FIG. 3/FIG. 5
Method: Sensory evaluations of different sweeteners at various concentrations were performed to provide comparative analysis of organoleptic characteristics of aqueous solutions of rebaudioside D, versus other sweeteners. The rebaudioside D was a stevia extract having a purity of at least 93% by weight rebaudioside D (Reb D). Initial sweetness characteristics of three concentrations of such Reb D in water were determined by a sensory panel of twelve testers. Sensory panels are well known to those of skill in the art, and comprise testers trained to evaluate the organoleptic attributes of comestibles. Typically, sensory panelists have been screened for their taste acuity and extensively trained in the use of standardized vocabulary to describe the appearance, aroma, flavor, mouthfeel and aftertaste of a wide variety of products, as well as scaling techniques to quantify the attributes. The numerical data generated by the sensory panel testers were then analyzed for their statistical significance.
The water employed in the tests of Example 1 comprised purified water as described in detail above, and having a pH of 7.0. The initial sweetness characteristics of 1200 parts per million (ppm) Reb D in water were compared to the initial sweetness characteristics of aqueous solutions of each of 1200 ppm rebaudioside A (Reb A), sucrose, aspartame and sucralose. The rebaudioside A was a stevia extract comprising a purity of 95% by weight rebaudioside A (PureCircle USA Inc., Oak Brook, Ill.). The specific attributes tested by the sensory panel comprised sweetness, thickness, astringency, bitterness, numbing, cooling and licorice.
The initial sweetness characteristics of other concentrations of rebaudioside D in water were also tested and compared to the same concentrations of rebaudioside A in water. […] FIGS. 2 through 5 illustrate the differences in the characteristics of sweetness and bitterness attributes between Reb D and Reb A.

Water solubility = assay type: physicochemical; settings: commercially available Reb D
Description: The water solubility of commercially available Reb D is low, thus, according to certain embodiments of the invention, rebaudioside D is provided as a supersaturated solution of rebaudioside D in the beverage products disclosed herein. As used herein, the term “saturated” refers to the point of maximum concentration at which a solution of a substance (e.g., a rebaudioside D solution) can dissolve no more of that substance. The saturation point of a substance depends on the temperature of the liquid the substance is to be dissolved in, as well as the chemical natures of the liquid and the substance involved (e.g., the water and/or the rebaudioside D). As used herein, the term “supersaturated” refers to a solution that contains more of a dissolved material (e.g., rebaudioside D) than a saturated solution. Supersaturated solutions are typically achieved when one or more conditions of a saturated solution is changed, such as, e.g., temperature, volume (e.g., by evaporation), pressure or the like.

[4] = tested on: sensory panel of twelve testers; assay: Sensory panel evaluation in water, noncarbonated beverage base and carbonated beverage base (Example 2); assay type: in vivo; parameters: Sweetness / Bitterness: scale not given here; settings: for interaction between the sweetener and the three beverage bases (initial sweetness attribute plots): water, noncarbonated and carbonated beverage base; for Reb D Compared to Reb A % Ratio, Bitterness / Reb D Compared to Reb A % Ratio, Sweetness: ratio of Reb D to Reb A
Method: Potential beverage base effects on the initial sweetness perception of rebaudioside D were investigated by performing tests of three concentrations of rebaudioside D (Reb D) in water, in a noncarbonated beverage base, and in a carbonated beverage base, by a sensory panel of twelve testers. The numerical data generated by the sensory panel testers were then analyzed for their statistical significance.
The water employed for the tests of this Example comprised the characteristics as described in Example 1. The noncarbonated beverage base comprised purified water, and citric acid in an amount sufficient to decrease the pH of the noncarbonated beverage base to 3.1. The carbonated beverage base comprised purified water, carbon dioxide, and citric acid in an amount sufficient to decrease the pH of the noncarbonated beverage base to about 3.1. The initial sweetness characteristics of 606 parts per million (ppm) Reb D in water were compared to the initial sweetness characteristics of 606 ppm Reb D in noncarbonated beverage base and 606 ppm Reb D in carbonated beverage base.
The specific attributes tested by the sensory panel comprised sweetness, thickness, astringency, bitterness, numbing, cooling, licorice, burn/tingle and mouthcoat.

[5] = commonly accepted potency figures; cited from earlier work
[6] = 360 ppm, averaged across all three beverage bases
[7] = 606 ppm, averaged across all three beverage bases
[8] = 1200 ppm, averaged across all three beverage bases
[9] = CSD (carbonated beverage base), 360 ppm
[10] = CSD (carbonated beverage base), 606 ppm
[11] = High Level, 1200 ppm, averaged across all three beverage bases
[12] = Low-Medium Level, 360 ppm, averaged across all three beverage bases
[13] = Medium Level, 606 ppm, averaged across all three beverage bases
[14] = NCB (noncarbonated beverage base), 360 ppm
[15] = NCB (noncarbonated beverage base), 606 ppm

C=C1C[C@@]23CC[C@H]4[C@@](C)(CCC[C@@]4(C)C(=O)O[C@@H]4O[C@H](CO)[C@@H](O)[C@H](O)[C@H]4O[C@@H]4O[C@H](CO)[C@@H](O)[C@H](O)[C@H]4O)[C@@H]2CC[C@]1(O[C@@H]1O[C@H](CO)[C@@H](O)[C@H](O[C@@H]2O[C@H](CO)[C@@H](O)[C@H](O)[C@H]2O)[C@H]1O[C@@H]1O[C@H](CO)[C@@H](O)[C@H](O)[C@H]1O)C3 [Reb D, rebaudioside D]
sweetness less than the sweetness of rebaudioside A [1]: approximately 10% | sweetness (value reported by Kinghorn) [2]: 221 | relative quality of taste, as compared to stevioside ([2]; stevioside is rated 0): +3 | overall attributes versus Reb A ([3]; 360, 606 and 1200 ppm in water, FIG. 8): less bitterness and astringency | behavior as compared to sucrose, all concentrations plotted ([3]; 360 ppm and 606 ppm Reb D in water): behaved more like sucrose than did any of the concentrations of Reb A | attributes of lower levels versus the same levels of Reb A ([3]; 360 ppm and 606 ppm in water, FIG. 8): less bitter, astringent, numbing and licorice | bitterness perception value less than same concentration of Reb A ([3]; 360 ppm in water): about 30 | initial sweetness perception ([3]; 360 ppm in water): about 62 | initial bitterness perception ([3]; 360 ppm in water): about 8 | initial sweetness attributes versus the same concentration of Reb A ([3]; 360 ppm in water, FIG. 7): significantly less astringency, bitterness and numbing | relative sweet properties (continuum regular sweet to artificial sweet-like) versus same concentration of Reb A ([3]; 360 ppm in water, FIG. 11): behaved more like sucrose | bitterness perception value less than same concentration of Reb A ([3]; 600 ppm in water): about 47 | initial sweetness attributes versus the same concentration of Reb A ([3]; 606 ppm in water, FIG. 6): significantly less astringency, bitterness and numbing | relative sweet properties (continuum regular sweet to artificial sweet-like) versus same concentration of Reb A ([3]; 606 ppm in water, FIG. 10): behaved more like sucrose | behavior as compared to sucrose, all concentrations plotted ([3]; 1200 ppm Reb D in water): behaved more like sucrose than did either 606 ppm Reb A or 1200 ppm Reb A | bitterness perception value less than same concentration of Reb A ([3]; 1200 ppm in water): about 67 | initial sweetness attributes versus the same concentration of Reb A ([3]; 1200 ppm in water, FIG. 1): significantly less astringency, bitterness and numbing | initial sweetness perception ([3]; 1200 ppm in water): about 108 | initial bitterness perception ([3]; 1200 ppm in water): about 18 | relative sweet properties (continuum regular sweet to artificial sweet-like) versus same concentration of Reb A ([3]; 1200 ppm in water, FIG. 9): behaved more like sucrose | numerical value of the bitterness perception versus Reb A ([3]; all concentrations in water): significantly lower | change in sweetness perception with an increase in concentration ([3]; in water, 360 to 1200 ppm): significant increase in sweetness perception | increase in bitterness perception with an increase in concentration, versus Reb A ([3]; in water, 360 to 1200 ppm): substantially lower | licorice attribute, 606 ppm Reb D versus 1200 ppm Reb D ([3]; in water, FIG. 6): lower value | correlation to the sweetness perception attributes of sucrose, versus rebaudioside A ([3]; in water, FIG. 8): more highly correlated | water solubility (Water solubility): low | average bitterness in each of the three beverage bases versus Reb A ([4]; 360 ppm): lower average bitterness | average sweetness in each of the three beverage bases versus Reb A ([4]; 360 ppm): greater average sweetness | interaction between the sweetener and the three beverage bases (initial sweetness attribute plots) ([4]; 360 ppm (sucrose 5.4 brix), FIGS. 16-18): no significant interaction | Reb D Compared to Reb A % Ratio, Bitterness [4, 6]: 37% | Reb D Compared to Reb A % Ratio, Sweetness [4, 6]: 115% | average bitterness in each of the three beverage bases versus Reb A ([4]; 606 ppm): lower average bitterness | average sweetness in each of the three beverage bases versus Reb A ([4]; 606 ppm): greater average sweetness | interaction between the sweetener and the three beverage bases (initial sweetness attribute plots) ([4]; 606 ppm (sucrose 8.5 brix), FIGS. 13-15): no significant interaction | Reb D Compared to Reb A % Ratio, Bitterness [4, 7]: 30% | Reb D Compared to Reb A % Ratio, Sweetness [4, 7]: 117% | Reb D Compared to Reb A % Ratio, Bitterness [4, 8]: 40% | Reb D Compared to Reb A % Ratio, Sweetness [4, 8]: 150% | Bitterness [4, 9]: 18.1 | Sweetness [4, 9]: 63.4 | Bitterness [4, 10]: 14.1 | Sweetness [4, 10]: 73.9 | Bitterness [4, 11]: 17.4 | Sweetness [4, 11]: 105.5 | Bitterness [4, 12]: 7.7 | Sweetness [4, 12]: 60.6 | Bitterness [4, 13]: 9.8 | Sweetness [4, 13]: 74.3 | Bitterness [4, 14]: 10.7 | Sweetness [4, 14]: 58.9 | Bitterness [4, 15]: 7.4 | Sweetness [4, 15]: 85.1 | Bitterness ([4]; Water, 360 ppm): 7.7 | Sweetness ([4]; Water, 360 ppm): 60.6 | Bitterness ([4]; Water, 606 ppm): 9.8 | Sweetness ([4]; Water, 606 ppm): 74.3 | potency, times as sweet as sugar [5]: 150-300 times as sweet as sugar
